For one experiment, the system named is GRABDA1m. Particulars: 50 μM DA.
For a further experiment, the system named is GRABNE sensors. In words: Ligand specificity and dynamic range of GRABNE sensors. Type of experiment: cell-based, human. Particulars: for fluorescence response of the sensors to the compound: HEK293T cells, Fig. 2G.
Experiment [1] addresses T1, GRABNE1m (Homo sapiens, UniProt P08913). Format: cell-based. Particulars: cultured neurons.
Experiment [2] has as its system GRABNE1h. In words: GRABNE1h fluorescence in acute mouse hippocampal slices. Format: cell-based, human.
The test system of experiment [3] is GRABNE1m. Particulars: cultured hippocampal slices; puff application in ACSF.
Experiment [4] has as its system optogenetically evoked NE release in the LC (GRABNE1m fluorescence). Type of experiment: in vivo, mouse. Particulars: i.p.; desipramine 10 mg/kg, yohimbine 2 mg/kg.
Experiment [5] concerns NE dynamics in the lateral hypothalamus (GRABNE1m fluorescence). Format: in vivo, mouse. Particulars: i.p.; atomoxetine 3 mg/kg, yohimbine 2 mg/kg, GBR 12909 10 mg/kg, sulpiride 50 mg/kg.
Experiment [6] has as its system looming-evoked NE release (GRABNE1m fluorescence). In words: Looming-evoked GRABNE1m fluorescence in optic tectum of zebrafish. Particulars: for effect on looming-induced increase in GRABNE1m fluorescence: bath application 50 μM. Format: in vivo.
The target of experiment [7] is T1, GRABNE1m. Type of experiment: cell-based.
In experiment [8] the target is GRABNE1h (Homo sapiens, UniProt P08913, T388K). Briefly: Fluorescence response of GRABNE1h expressed in HEK293T cells. Format: cell-based.
The test system of experiment [9] is GRABNEmut. Briefly: Fluorescence response of GRABNEmut expressed in HEK293T cells. Type of experiment: cell-based, human. Particulars: 100 μM NE.
Experiment [10] deals with GRABNE1h. Format: cell-based, human. Particulars: cultured hippocampal slices; puff application in ACSF.
Experiment [11] has as its system GRABNEmut. Type of experiment: cell-based, human. Particulars: cultured hippocampal slices.
Experiment [12] has as its system GRABNE1m. In words: Bath application to Tg. Format: in vivo, zebrafish.
Experiment [13] deals with GRABNEmut. In words: Bath application to zebrafish expressing GRABNEmut. Format: in vivo. Particulars: 50 μM NE.
In experiment [14] the test system is GRABNE1h. In words: Fluorescence response of GRABNE1h expressed in HEK293T cells. Format: cell-based, human. Particulars: 10 μM yohimbine.
The test system of experiment [15] is GRABNE1m. Type of experiment: cell-based, human.
The test system of experiment [16] is release of endogenous NE in the LC (GRABNE1m fluorescence). Type of experiment: cell-based, mouse.

“And” between values parts separate entries of the source, which are not always exact repeats. Identical values can stand only once. Counter-ions that a name gives are not always drawn. Like-named read-outs stand apart in the source and are kept apart here.

As for `NCCc1ccc(O)c(O)c1` [DA, Dopamine hydrochloride], in the experiment on GRABDA1m, the “fluorescence response to application” value was “responded robustly”.
Consider `CNC[C@H](O)c1ccc(O)c(O)c1` [Epi, Epinephrine hydrochloride], for which, in the experiment on GRABNE sensors, the “fluorescence response of the sensors to the compound” value (“fluorescence response of the sensors” below) is “responded”. Besides, the “fluorescence response to the compound” value on GRABNE1m [1] (compounds at 10 μM each) is listed as “responded specifically”. Further, the “fluorescence response to exogenous application” value is reported as “evoked a fluorescence increase” in the experiment with GRABNE1h [2] and “generated fluorescence increases” in the experiment on GRABNE1m [3].
For `Fc1ccc(C(OCCN2CCN(CCCc3ccccc3)CC2)c2ccc(F)cc2)cc1` [GBR 12909], the “effect on light-evoked GRABNE1m responses” value in [4] is recorded as “had no effect”. In experiment [5], the “effect on GRABNE1m peak fluorescence during tail suspension” value is listed as “had no effect” and the “effect on time to return to baseline after tail suspension” value (“effect on time to return to baseline” below) is on record as “had no effect”.
Turning to `Cc1ccc(OCC(O)C(C)NC(C)C)c2c1CCC2.Cl` (stereo not drawn) [ICI 118,551, ICI 118,551 hydrochloride], the “effect on looming-induced increase in GRABNE1m fluorescence” value in [6] was “unaffected”.
As to `NC[C@H](O)c1ccc(O)c(O)c1` [NE, Norepinephrine], the “average τoff” value on GRABNE1m [7] (HEK293T cells, NE followed by 200 μM yohimbine, line scanning) is 680 ms; at GRABNE1h [8] (NE followed by 200 μM yohimbine, line scanning), 1890 ms. The “internalization of GRABNE1m” value at GRABNE1m [7] (saturating concentration of NE for 2 h) is reported as “no internalization”. The “maximum ΔF/F0” value on GRABNE1h [8] (100 μM NE) was ~ 130%. For the same compound, at GRABNE1h [8] (405-nm uncaging, single exponential fit), the “mean on time constant after photolysis of NPEC-caged NE” value turned out to be 137 ms. Further, the “increase in sensitivity to NE compared with GRABNE1m” value on GRABNE1h [8] (T6.34K point mutation) stood at 10 fold. For the same compound, the “fluorescence response to NE” value is “does not respond” in the experiment on GRABNEmut [9] and “did not respond” with GRABNEmut [13]. The “fluorescence response of the sensors” value in the experiment with GRABNE sensors is given as “responded”. Also, the “peak ΔF/F0 response / dynamic range of the GRABNE sensor family” value in the experiment on GRABNE sensors (saturating NE) was 230% and ~ 200%. Besides, the “fluorescence response to exogenous application” value with GRABNE1h [10] was “evoked a robust increase in fluorescence”; in the experiment with GRABNEmut [11], “no detectable effect”; with GRABNE1h [2] it was “evoked a fluorescence increase”; in the experiment with GRABNE1m [3], “evoked a robust increase in fluorescence”. For the same compound, the “fluorescence response to bath application” value in the experiment with GRABNE1m [12] (50 μM, tectal neuropil, larvae) was “elicited a robust increase in fluorescence intensity”.
As to `CNCC[C@@H](Oc1ccccc1C)c1ccccc1` [atomoxetine, Atomoxetine hydrochloride], in [5], the “effect on GRABNE1m peak fluorescence during tail suspension” value is listed as “had no effect” and the “effect on time to return to baseline” value is “significantly slowed the return of signal to its baseline”.
Consider `Brc1c(NC2=NCCN2)ccc2nccnc12` [brimonidine, UK 14,304 tartrate], for which the “fluorescence response of the sensors” value in the experiment on GRABNE sensors was “responded”. The “fluorescence response to exogenous application” value was “evoked a fluorescence increase” with GRABNE1h [2] and “generated fluorescence increases” in the experiment on GRABNE1m [3].
As to `CNCCCN1c2ccccc2CCc2ccccc21` [desipramine, Desipramine hydrochloride], the “effect on decay of looming-induced fluorescence signal” value in experiment [6] (desipramine 50 μM) is reported as “slowed the decay of the fluorescence signal”. Moreover, in experiment [4], the “effect on basal GRABNE1m fluorescence” value is reported as “slow progressive increase”; the “effect on light-evoked GRABNE1m responses” value is “increase in the magnitude and decay time”.
Take `CCc1cc(Cl)c(OC)c(C(=O)NC[C@@H]2CCCN2CC)c1O` [eticlopiride, Eticlopride hydrochloride]: the “effect on light-evoked GRABNE1m responses” value in [4] is given as “had no effect”.
On to `CCN1CCCC1CNC(=O)c1cc(S(N)(=O)=O)ccc1OC` (stereo not drawn) [sulpiride, Sulpiride], for which, in experiment [5], the “effect on GRABNE1m peak fluorescence during tail suspension” value is listed as “had no effect” and the “effect on time to return to baseline” value is “had no effect”.
`COC(=O)[C@@H]1[C@H]2C[C@H]3c4[nH]c5ccccc5c4CCN3C[C@@H]2CC[C@@H]1O` [yohimbine, Yohimbine hydrochloride]: in the experiment on GRABNE1h [14], the “block of uncaging-induced fluorescence increase” value is listed as “blocked”. In addition, the “block of NE-induced fluorescence increase” value in the experiment with GRABNE sensors (GRABNE-expressing HEK293T cells) is on record as “blocked”. Further, the “block of NE-induced fluorescence increase” value with GRABNE1m [15] is on record as “blocked completely”. The “block of agonist-evoked fluorescence increase” value in the experiment on GRABNE1h [2] was “blocked”. In addition, the “block of electrically evoked fluorescence increase” value in the experiment on GRABNE1h [2] (stimuli at 20 Hz for 1 s) is given as “blocked”. In [16] (50 μM NE, 20 μM yohimbine, Fig. 4H), the “block of GRABNE1m response to applied NE” value is on record as “abolished”. Also, in experiment [16] (20 pulses at 20 Hz, 4-AP 100 μM, Cd2+ 100 μM, desipramine 10 μM, yohimbine 20 μM), the “effect on stimulation-induced fluorescence response” value is given as “blocked the response”. For the same compound, the “block of NE-induced fluorescence increase” value in the experiment with GRABNE1m [12] (50 μM antagonist after 50 μM NE) was “blocked completely”. The “effect on looming-induced increase in GRABNE1m fluorescence” value in [6] is recorded as “blocked”. Also, in [4], the “effect on basal GRABNE1m fluorescence” value was “abolished” and the “effect on light-evoked GRABNE1m responses” value was “abolished”. Further, in [5], the “effect on GRABNE1m peak fluorescence during tail suspension” value is given as “decreased” and the “effect on time to return to baseline” value is “significantly accelerated the return to baseline”.
For the compound pertussis toxin, the “effect on NE-induced fluorescence response” value is listed as “had no effect” on GRABNE1m [7] (HEK293T cells, blocking G protein activation) and “had no effect” on GRABNE1h [8] (blocking G protein activation). In addition, the “effect on NE-induced fluorescence change” value at GRABNE1m [1] (inhibiting G protein activation) was “did not affect”.

These data come from PMC6533151 (Neuron, 2019).
